In the OPERA property sets (Mansouri et al. 2018):

settings: not given

SMILES	boiling point [°C]	melting point [°C]	log10 Henry constant (atm·m³/mol)	log10 vapour pressure (mmHg)	ready biodegradability	log10 Koc (L/kg)	log10 biodegradation half-life (days)
CCCCOC(C)C	109						
O=C(O)c1cc(Cl)c(C(=O)O)cc1Cl		306					
COc1ccc2cc1Oc1ccc(cc1)C[C@H]1c3cc(c(OC)cc3CCN1C)Oc1c(OC)c(OC)cc3c1[C@H](C2)N(C)CC3		218					
COc1cc(O)c2c(=O)c(-c3ccc(O)cc3)coc2c1		240					
Cc1cc(Cl)c(O)c(Cl)c1	231	39					
Cc1cncc(C)c1	172	-6.6	-5.16	0.239			
CCCCC(=O)N(C)C		-51					
O=S(=O)(O)c1ccc2ccccc2c1		91					
CC(Br)CBr (stereo not given)	142	-55.5		0.894			
CC(C)C(C)(C)C(C)C	142	-102		0.946			
O=C1C(O)=C(O)C(=O)c2ccccc21		282					
Brc1ccsc1Br	218	-17.5					
CCOC(=O)CCCCCC(=O)O		10					
CCOc1ccc2c(c1)C(C)=CC(C)(C)N2					not readily biodegradable		
ClCCCCCCCCCCCl		15.6					
NS(=O)(=O)c1ccc(S(=O)(=O)CCCO)c(F)c1		130					
CCC(O)C(C)(C)C (stereo not given)	135	-5					
CCc1c(C(=O)O)c(=O)cnn1-c1ccc(Cl)cc1		269					
CC(=O)Nc1ccccc1O		208			readily biodegradable		
c1ccc2c(c1)-c1ccc3ccc4cccc5cc-2c1c3c45	536	164	-6.46			6.2	2.52
CCCCCCCCCC(=O)Cl		-34.5					
CC=C(CC)C(C)C(=O)CC (stereo not given)		74.5					
CC(C)c1ccccc1N	221						
OCCN1CCOCC1	227	-1.6			readily biodegradable		
COC(=O)CCCCl	175						
CCOC(=O)C(CC)(CC)C(=O)OCC	230						

SMILES	boiling point [°C]	melting point [°C]	log10 Henry constant (atm·m³/mol)	log10 vapour pressure (mmHg)	ready biodegradability	log10 Koc (L/kg)	log10 biodegradation half-life (days)
CCC(Br)C(C)Br (stereo not given)	178	-56					
CCC(c1ccc(O)cc1)c1ccc(O)cc1		132					
O=C(CCNNC(=O)c1ccncc1)NCc1ccccc1		152					
Cl.c1ccc(CC2=NCCN2)cc1		175					
C=C(C=O)CC	92.5						
O=c1[nH]cccc1O					not readily biodegradable		
CCN(Cc1c(F)cccc1Cl)c1c([N+](=O)[O-])cc(C(F)(F)F)cc1[N+](=O)[O-]		102		-6.62		4	
C=CCCCCCCC(=O)O		5					
O=P(O)(Oc1ccccc1)Oc1ccccc1		67.5					
FC(F)(F)C1(F)OC1(F)F (stereo not given)	-27.4						
Cl.NCCc1ccc(O)cc1		272					
COC(=O)C(C)Oc1ccc(Oc2ccc(Cl)cc2Cl)cc1 (stereo not given)		40		-5.46	readily biodegradable	4.2	
C[C@@H]1CCC[C@H](C)C1 (racemic)		-82.8					
CC(=O)OCC(=O)[C@H]1CC[C@H]2[C@@H]3CCC4=CC(=O)CC[C@]4(C)[C@H]3CC[C@]12C		157					
CCOC(=O)C(=O)CC(C)=O	214	18					
O=C1OS(=O)(=O)c2ccccc21		130					
O=C1OCCO1	248	39.5		-2.01	readily biodegradable		
CCCN1C[C@H](CSC)C[C@@H]2c3cccc4[nH]cc(c34)C[C@H]21		208					
Nc1cccc(C(=O)O)c1		173			not readily biodegradable		
Nc1cc2ccccc2cc1N		199					
NS(=O)(=O)c1cc2c(cc1Cl)NC(CSCC(F)(F)F)NS2(=O)=O (stereo not given)		206					
CC(O)COC(C)COC(C)CO (stereo not given)					not readily biodegradable		
C=C1CCC1	42.2	-135					
NS(=O)(=O)c1cc2c(cc1Cl)CN(C1CCCCC1)C2=O		267					
CC(C(=O)O)c1cccc(C(=O)c2ccccc2)c1 (stereo not given)		94					
O=C(NNc1ccccc1)NNc1ccccc1		170					

SMILES	boiling point [°C]	melting point [°C]	log10 Henry constant (atm·m³/mol)	log10 vapour pressure (mmHg)	ready biodegradability	log10 Koc (L/kg)	log10 biodegradation half-life (days)
O=C(CCCN1CCC(n2c(=O)[nH]c3ccccc32)CC1)c1ccc(F)cc1		171					
CCc1c(CC)c(CC)c(CC)c(CC)c1CC	298	129					
c1ccc2nncnc2c1	238	75.8					
CC(C)=C(C)C	73.3	-74.6		2.1			
COc1cccc(C=O)c1O	266	44.5					
C#CC=C	5.1			3.13			
CCCCCCCCCCCCCCCCCCC	330	32.1		-4.31	readily biodegradable		1.26
O=C1C(Cl)=C(Cl)C(=O)C(Cl)=C1Cl		290				2.32	
CC1CCCC1=O (stereo not given)	140	-75					
O=C=S	-50	-139		3.97			
N#Cc1cc(Cl)ccc1N		97					
O=C1c2ccccc2C(=O)c2ccccc21	377	286		-6.94	readily biodegradable	3.57	
CC1Cc2ccccc2O1 (stereo not given)	198						
CCOC(=O)N(c1ccccc1)c1ccccc1	360	72					
CCN(CC)CCOC(=O)c1ccc(N)cc1.Cl		156					
CC(=O)OC1CCCCC1	173	-65		1.03			
COc1cc(O)cc(O)c1		80.3					
CCN(CCO)c1ccc(N=Nc2ccc([N+](=O)[O-])cc2)cc1		161		-13.4			
O=C(Cl)c1cccc(F)c1	189	-30					
O=[N+]([O-])OC(CO)CO	158	54					
OCC(F)(F)C(F)(F)C(F)(F)C(F)F	140						
C1CCC2OC2C1 (stereo not given)	132						
C[C@@H]1[C@@H](c2ccc(Cl)cc2)SC(=O)N1C(=O)NC1CCCCC1 (single isomer, unassigned)		108		-7.59		3.79	
OCc1ccccc1C(c1ccc(O)cc1)c1ccc(O)cc1		202					
C=CCc1cc(C)ccc1O	237						
O=C(C(Cl)Cl)N(CCO)Cc1ccc(Oc2ccc([N+](=O)[O-])cc2)cc1		136					

SMILES	boiling point [°C]	melting point [°C]	log10 Henry constant (atm·m³/mol)	log10 vapour pressure (mmHg)	ready biodegradability	log10 Koc (L/kg)	log10 biodegradation half-life (days)
CCCCCCCC/C=C\CCCCCCCC(=O)[O-].[Na+]		234					
CN(C)c1ccc(C#N)cc1	318	74					
COC(=O)c1cc(C)ccc1O	244	-1					
O=C1CCc2ccccc21	243	42					
CCCCCCCCCI				-1.56			
N#CCNCC#N		70		-2.47			
CCC(=NO)C(C)=NO		172					
OCc1c(F)c(F)c(F)c(F)c1F	181	37.5					
CCC(C)(C)C	49.7	-99		2.5			1.28
CC(C(=O)O)(c1ccccc1)c1ccccc1		176					
CCCCCC(C)C(C)C (stereo not given)	164						
COc1ccc(C(=O)NCc2cccnc2)cc1C(=O)NCc1cccnc1		124					
O=Cc1ccc(Br)cc1		67					
CCC(=O)O[C@H]1CC[C@@]2(C)C(=CC[C@H]3[C@@H]4CC[C@H](OC(=O)CC)[C@@]4(C)CC[C@@H]32)C1		113					
Cc1cc(C(=O)C(F)(F)F)ccc1Cl					not readily biodegradable		
Brc1ccc2c(c1)Cc1ccccc1-2		114					
COc1ccc(Cc2nccc3cc(OC)c(OC)cc23)cc1OC		148					
Cc1cccc(Br)c1	184	-39.8		0.185			
O=C(Nc1ccccc1)NC1CCCC1						1.93	
CCC(C)(CC)c1cc(NC(=O)c2c(OC)cccc2OC)on1		178		-8.38		2.4	
Oc1ccccc1-c1nc2ccccc2s1		131					
CC(C)(C)c1ccc(C(=O)O)cc1		164			not readily biodegradable		
Oc1ccccc1F	152	16.1	-5.49		not readily biodegradable		
NC(=O)C[C@H](O)C(=O)O		148					
Nc1cc([N+](=O)[O-])ccc1Cl		121					

same assay, conditions: fish

SMILES	log10 BCF
CC(C)(C)c1ccc(C(=O)O)cc1	0.66
